Assay results: patent publication US9791463B2, “Methods for the selective detection of alkyne-presenting molecules and related compositions and systems” (Lawrence Livermore National Security, LLC, priority 2013, dated 2017)

What was measured:
[1] = Fluorescence measurement of azido probe and EE2-probe adduct (spectrometer); assay type: physicochemical; conditions: excited at λ=319 nm; initial measurements
Excerpt: A feature of the probes herein described is the means by which a readable fluorescent signal can be reliably detected once the azidonaphthalimidoyl probe (see Example 1, compound 3) reacts with EE2. Thus, fluorescent measurements can be conducted on azido probe 3 (Example 1) before and after its reaction with commercially available 17α-ethinylestradiol (EE2, 1) (FIG. 5). […] Thus, the fluorescence profile of the EE2-probe adduct 4 can be obtained at different concentrations in order to obtain the lowest limit of detection for this analytical approach (Panel 1 of FIG. 5). Once that lower limit has been determined, a second set of experiments can be undertaken to test the efficacy and fidelity of the Click reaction. […] After the overnight run, the samples can be extracted into an organic layer (CH2Cl2 or diethyl ether), evaporated, redissolved in the solvent of choice for the fluorescence measurements (e.g. H2O, or a combination of MeOH/H2O) and their fluorescent intensities measured. This second set of experiments is designed to test the real case scenario where the actual, unknown EE2 concentration in a given sample can be detected using the azido probe.
Once an azido probe as herein described (e.g. 3) is synthesized (Example 1), it can be reacted with commercially available EE2. […] The calculated Stokes' shift based on this preliminary measurements is Δλ=48 nm.

[2] = Visual fluorescence analysis with a UV lamp (long wavelength, 365 nm); assay type: physicochemical; conditions: λ=365 nm; equimolar solutions of probe and adduct
Excerpt: Both vials contain equimolar amounts of the azido probe and EE2-probe adduct respectively.
Once an azido probe as herein described (e.g. 3) is synthesized (Example 1), it can be reacted with commercially available EE2. For example, reaction of azido probe 3 with EE2 in the presence of CuSO4.5H2O and sodium ascorbate in a 2:1 tert-butanol-water mixture at room temperature overnight yielded the triazole-containing EE2-probe adduct 4 in nearly quantitative yield (>95%) as an off-white solid after column chromatography. The use of another source of Cu(I) ion such as CuBr or CuI can be employed in this step, eliminating the need for sodium ascorbate. However, copper(I) halides can be avoided if a reduction in unwanted background fluorescence when using the spectrophotometer is desired. If a cost reduction is desired, instead of copper(I) halides readily available and inexpensive Cu(II) sulfate pentahydrate and sodium ascorbate can be purchased in multigram quantities and used in reactions with EE2. […] The calculated Stokes' shift based on this preliminary measurements is Δλ=48 nm.

[N-]=[N+]=Nc1ccc2c3c(cccc13)C(=O)N(CCOCCO)C2=O [Probe 3]
fluorescence of the probe [1]: marginal fluorescence | qualitative fluorescence under UV lamp [2]: does not
